Experimental data taken from publication PMC11191352, “Mandelonitrile lyase MDL2-mediated regulation of seed amygdalin and oil accumulation of Prunus Sibirica” (BMC Plant Biology, 2024).

Tested on: T1, PsMDL2
T1 construct: gene MDL2
Assay: spectrophotometric mandelonitrile cleavage at […] nm, Lineweaver-Burk
Type: biochemical, Prunus sibirica
Conditions: 0.1 M citrate-phosphate buffer pH 5.0, 25 °C; mandelonitrile 0.05-4.0 mM; purified recombinant enzyme

N#CC(O)c1ccccc1 (stereo not shown) [mandelonitrile]
Km: 220 µM
